The results in this text go back to US20230304010A1, “COMPOSITIONS AND METHODS FOR TREATING VIRAL INFECTIONS” (priority 2020, published 2023).

Where “and” joins values, the source holds several entries; their conditions need not be identical. Equal values may be shown once. Read-outs that look alike come from different tables or passages of the source. Ends that are not written are not given here. Peptide text beside a SMILES is read from it. A value given as a limit tells only on which side of the number the result lay.

For orientation: IC50 means the concentration needed to halve the response being measured.

The target of data set [1] is SARS-CoV-2 Spike: ACE2 interaction (UniProt P0DTC2+Q9BYF1). The data set is described as follows: biochemical. The class given is binding.
For data set [2], the target named is ACE2:SARS-CoV-2 Spike interaction (UniProt P0DTC2+Q9BYF1). Nature of the data set: biochemical. The class given is binding.
The nature of data set [3]: Nanoparticle formation of peptides with ADGN-106: mean size and polydispersity (Zetasizer). The class given is physicochemical. The following applies: 25° C.; for Mean Size (nm): peptide/ADGN-106 complexes; for PI: polydispersity index of peptide/ADGN-106 complexes. The text has this: We then tested the ability of the different peptides to form nanoparticle organization in the presence of ADGN-106 or ADGN-100 peptide. […] Peptides were complexed with 5 or 10 molar excess of ADGN-106.

Where [4] appears, read: read-out: SARS-CoV-2 Spike:ACE2 IC50.
Where [5] appears, read: read-out: ACE2:SARS-CoV-2 Spike IC50.
[6] abbreviates: IC50, block of SARS-CoV-2 Spike: ACE2 interaction.
[7] abbreviates: IC50, block of ACE2:SARS-CoV-2 Spike interaction.

Chain of SARS-CoV-2 Spike: ACE2 interaction (Q9BYF1 18-740, one chain of several): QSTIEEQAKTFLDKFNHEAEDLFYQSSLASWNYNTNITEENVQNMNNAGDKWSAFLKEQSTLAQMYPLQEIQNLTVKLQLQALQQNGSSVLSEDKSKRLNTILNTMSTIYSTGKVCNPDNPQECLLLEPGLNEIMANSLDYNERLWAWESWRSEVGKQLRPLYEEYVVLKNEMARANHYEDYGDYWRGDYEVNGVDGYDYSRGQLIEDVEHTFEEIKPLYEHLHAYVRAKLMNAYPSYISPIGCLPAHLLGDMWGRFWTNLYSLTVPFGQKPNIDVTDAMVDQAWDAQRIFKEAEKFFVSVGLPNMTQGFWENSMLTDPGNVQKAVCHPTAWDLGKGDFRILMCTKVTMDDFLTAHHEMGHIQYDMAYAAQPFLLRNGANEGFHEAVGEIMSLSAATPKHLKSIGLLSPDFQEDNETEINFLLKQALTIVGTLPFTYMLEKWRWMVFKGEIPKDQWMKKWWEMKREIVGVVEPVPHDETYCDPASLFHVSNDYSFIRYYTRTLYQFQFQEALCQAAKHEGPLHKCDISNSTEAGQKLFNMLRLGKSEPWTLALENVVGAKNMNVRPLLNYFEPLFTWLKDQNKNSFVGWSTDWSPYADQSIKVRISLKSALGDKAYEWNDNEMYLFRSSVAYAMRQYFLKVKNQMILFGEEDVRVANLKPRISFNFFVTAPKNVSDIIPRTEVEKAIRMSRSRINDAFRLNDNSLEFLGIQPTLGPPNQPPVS
Chain of ACE2:SARS-CoV-2 Spike interaction (Q9BYF1 18-740, one chain of several): as above

Regarding `CC(C)C[C@H](NC(=O)[C@H](Cc1ccc(O)cc1)NC(=O)[C@H](CC(N)=O)NC(=O)[C@H](Cc1ccc(O)cc1)NC(=O)[C@H](CC(N)=O)NC(=O)CNC(=O)CNC(=O)[C@@H](NC(=O)[C@H](CCCCN)NC(=O)[C@@H](N)CO)C(C)C)C(=O)N[C@@H](Cc1ccc(O)cc1)C(=O)N[C@@H](CCCNC(=N)N)C(=O)O` [Seq1], the half-inhibitory concentration (IC50) in data set [1] (SARS-CoV-2 Spike:ACE2 IC50) and in data set [2] (ACE2:SARS-CoV-2 Spike IC50) was over 10 µM in each case.

Regarding `CC(C)C[C@H](NC(=O)[C@H](CCCNC(=N)N)NC(=O)[C@H](Cc1ccc(O)cc1)NC(=O)[C@H](CC(C)C)NC(=O)[C@H](Cc1ccc(O)cc1)NC(=O)[C@H](CC(N)=O)NC(=O)[C@H](Cc1ccc(O)cc1)NC(=O)[C@H](CC(N)=O)NC(=O)CNC(=O)CN)C(=O)N[C@@H](Cc1ccccc1)C(=O)N[C@@H](CCCNC(=N)N)C(=O)N[C@@H](CCCCN)C(=O)O` [Seq4], the IC50 in data set [1] (SARS-CoV-2 Spike:ACE2 IC50) and in data set [2] (ACE2:SARS-CoV-2 Spike IC50) was over 10 µM each time.

With `CC(C)[C@H](NC(=O)CNC(=O)[C@H](CC(N)=O)NC(=O)[C@@H](N)CS)C(=O)N[C@@H](CCC(=O)O)C(=O)NCC(=O)N[C@@H](Cc1ccccc1)C(=O)N[C@@H](CC(N)=O)C(=O)N[C@@H](CS)C(=O)O` [Seq6] (H-CNGVEGFNC-OH), the IC50 in data set [1] (SARS-CoV-2 Spike:ACE2 IC50) and in data set [2] (ACE2:SARS-CoV-2 Spike IC50) was over 10 µM throughout.

Regarding `CC(C)C[C@H](NC(=O)[C@@H]1CCCN1C(=O)[C@H](Cc1ccccc1)NC(=O)[C@@H](N)Cc1ccc(O)cc1)C(=O)N[C@@H](CCC(N)=O)C(=O)N[C@@H](CO)C(=O)N[C@@H](Cc1ccc(O)cc1)C(=O)NCC(=O)N[C@@H](Cc1ccccc1)C(=O)N[C@@H](CCC(N)=O)C(=O)N1CCC[C@H]1C(=O)N[C@H](C(=O)N[C@@H](CC(N)=O)C(=O)NCC(=O)N[C@H](C(=O)NCC(=O)N[C@@H](Cc1ccc(O)cc1)C(=O)N[C@@H](CCC(N)=O)C(=O)O)C(C)C)[C@@H](C)O` [Seq8], the IC50 in data set [1] (SARS-CoV-2 Spike:ACE2 IC50) and in data set [2] (ACE2:SARS-CoV-2 Spike IC50) was over 10 µM throughout.

Consider `CC(=O)N[C@@H](CCCCN)C(=O)N[C@H](C(=O)N[C@@H](Cc1ccccc1)C(=O)N[C@@H](CC(C)C)C(=O)N[C@@H](CC(=O)O)C(=O)N[C@@H](CCCCN)C(=O)N[C@@H](Cc1ccccc1)C(=O)N[C@@H](CC(N)=O)C(=O)N[C@@H](Cc1c[nH]cn1)C(=O)N[C@@H](CCC(=O)O)C(=O)N[C@@H](C)C(=O)N[C@@H](CCC(=O)O)C(=O)N[C@@H](CC(=O)O)C(=O)N[C@@H](CC(C)C)C(=O)N[C@@H](Cc1ccccc1)C(=O)N[C@@H](Cc1ccc(O)cc1)C(=O)N[C@@H](CO)C(=O)NCCCCCC(=O)N[C@@H](CC(C)C)C(=O)N[C@@H](Cc1c[nH]c2ccccc12)C(=O)N[C@@H](CCCNC(=N)N)C(=O)N[C@@H](C)C(=O)N[C@@H](CC(C)C)C(=O)N[C@@H](Cc1c[nH]c2ccccc12)C(=O)N[C@@H](CCCNC(=N)N)C(=O)N[C@@H](CC(C)C)C(=O)N[C@@H](Cc1c[nH]c2ccccc12)C(=O)N[C@@H](CCCNC(=N)N)C(=O)N[C@@H](CO)C(=O)N[C@@H](CC(C)C)C(=O)N[C@@H](Cc1c[nH]c2ccccc12)C(=O)N[C@@H](CCCNC(=N)N)C(=O)N[C@@H](CC(C)C)C(=O)N[C@@H](CC(C)C)C(=O)N[C@@H](Cc1c[nH]c2ccccc12)C(=O)N[C@@H](CCCCN)C(N)=O)[C@@H](C)O` [Seq35], for which the midpoint of inhibition in data set [1] (SARS-CoV-2 Spike:ACE2 IC50), the IC50, lay at 0.546 µM. The compound further gave an IC50 in data set [2] (ACE2:SARS-CoV-2 Spike IC50) of 0.728 µM. Moreover, in data set [3], the “Mean Size (nm)” value is 44 ± 10 nm and the PI is 0.22.

For the compound `CC[C@H](C)[C@H](NC(=O)[C@H](CCCNC(=N)N)NC(=O)[C@H](Cc1ccccc1)NC(=O)[C@H](CC(=O)O)NC(=O)CNC(=O)[C@H](CCCCN)NC(=O)CNC(=O)[C@H](CC(C)C)NC(=O)[C@H](CC(=O)O)NC(=O)[C@H](Cc1c[nH]c2ccccc12)NC(=O)[C@H](C)NC(=O)[C@@H](NC(C)=O)[C@@H](C)O)C(=O)NCCCCCC(=O)N[C@@H](CC(C)C)C(=O)N[C@@H](Cc1c[nH]c2ccccc12)C(=O)N[C@@H](CCCNC(=N)N)C(=O)N[C@@H](C)C(=O)N[C@@H](CC(C)C)C(=O)N[C@@H](Cc1c[nH]c2ccccc12)C(=O)N[C@@H](CCCNC(=N)N)C(=O)N[C@@H](CC(C)C)C(=O)N[C@@H](Cc1c[nH]c2ccccc12)C(=O)N[C@@H](CCCNC(=N)N)C(=O)N[C@@H](CO)C(=O)N[C@@H](CC(C)C)C(=O)N[C@@H](Cc1c[nH]c2ccccc12)C(=O)N[C@@H](CCCNC(=N)N)C(=O)N[C@@H](CC(C)C)C(=O)N[C@@H](CC(C)C)C(=O)N[C@@H](Cc1c[nH]c2ccccc12)C(=O)N[C@@H](CCCCN)C(N)=O` [Seq36], the IC50 in data set [1] (SARS-CoV-2 Spike:ACE2 IC50) and in data set [2] (ACE2:SARS-CoV-2 Spike IC50) was over 1 µM in each case.

The compound `CSCC[C@H](NC(=O)[C@H](CO)NC(=O)[C@H](CC(N)=O)NC(=O)[C@H](CCC(=O)O)NC(=O)[C@H](Cc1c[nH]c2ccccc12)NC(=O)[C@H](Cc1ccccc1)NC(=O)CNC(=O)[C@H](CCC(N)=O)NC(=O)[C@@H](NC(=O)[C@H](CCSC)NC(=O)[C@H](CC(N)=O)NC(C)=O)[C@@H](C)O)C(=O)N[C@@H](CC(C)C)C(=O)N[C@H](C(=O)N[C@@H](CC(=O)O)C(=O)NCCCCCC(=O)N[C@@H](CC(C)C)C(=O)N[C@@H](Cc1c[nH]c2ccccc12)C(=O)N[C@@H](CCCNC(=N)N)C(=O)N[C@@H](C)C(=O)N[C@@H](CC(C)C)C(=O)N[C@@H](Cc1c[nH]c2ccccc12)C(=O)N[C@@H](CCCNC(=N)N)C(=O)N[C@@H](CC(C)C)C(=O)N[C@@H](Cc1c[nH]c2ccccc12)C(=O)N[C@@H](CCCNC(=N)N)C(=O)N[C@@H](CO)C(=O)N[C@@H](CC(C)C)C(=O)N[C@@H](Cc1c[nH]c2ccccc12)C(=O)N[C@@H](CCCNC(=N)N)C(=O)N[C@@H](CC(C)C)C(=O)N[C@@H](CC(C)C)C(=O)N[C@@H](Cc1c[nH]c2ccccc12)C(=O)N[C@@H](CCCCN)C(N)=O)[C@@H](C)O` [Seq37] came in with an IC50 in data set [1] (SARS-CoV-2 Spike:ACE2 IC50) of over 1 µM. In data set [2] (ACE2:SARS-CoV-2 Spike IC50), 0.645 µM corresponded to half-maximal inhibition (IC50). Besides, in data set [3], the “Mean Size (nm)” value turned out to be 59.2 ± 14 nm and the PI is 0.24.

Take Ac-EQAKTFLDKFNHEAEDLF [Seq24]: the IC50 in data set [1] (SARS-CoV-2 Spike:ACE2 IC50) is 1.3 µM; in data set [2] (ACE2:SARS-CoV-2 Spike IC50), 0.57 ± 0.03 µM.

In the case of “Ac-G*NYNYLYRL*-Ava-LWRALWRLWRSLWRLLWK-NH2 [Seq14]”, the IC50 in data set [1] (setting [4]) and in data set [2] (setting [5]) was over 10 µM each time.

On to “Ac-K*VGGNYNYK*-Ava-LWRALWRLWRSLWRLLWK-NH2 [Seq13]”, for which the IC50 in data set [1] (setting [4]) and in data set [2] (setting [5]) was over 10 µM in each case.

Take Ac-KTFLDKFNHEAEDLF [Seq25]: the IC50 in data set [1] (SARS-CoV-2 Spike:ACE2 IC50) was found to be 2.5 µM; in data set [2] (ACE2:SARS-CoV-2 Spike IC50) it was 1.9 µM.

With Ac-KTFLDKFNHEAEDLFYS [Seq26], the IC50 in data set [1] (SARS-CoV-2 Spike:ACE2 IC50) amounted to 1.9 µM; in data set [2] (ACE2:SARS-CoV-2 Spike IC50) it was 2.1 µM.

Turning to Ac-NMTQGFWENPGGPTAWDLGK [Seq31], the IC50 in data set [1] (setting [6]) was over 10 µM; in data set [1] (SARS-CoV-2 Spike:ACE2 IC50), over 10 µM; in data set [2] (ACE2:SARS-CoV-2 Spike IC50) it was over 10 µM; in data set [2] (setting [7]), > 10 µM and 25 µM.

Turning to Ac-NMTQGFWENSMLTD [Seq30], the IC50 in data set [1] (setting [6]), in data set [1] (SARS-CoV-2 Spike:ACE2 IC50), in data set [2] (ACE2:SARS-CoV-2 Spike IC50) and in data set [2] (setting [7]) was over 10 µM each time.

Take “Ac-S*KVGGNYNYLY*R-Ava/Ahx-LWRALWRLWRSLWRLLWK-NH2 [Seq12]”: the “blocked ACE2:SARS-CoV-2 Spike interaction” value in data set [2] is listed as “blocked”. In addition, in data set [3], the “Mean Size (nm)” value came out at 35.4 ± 5 nm and the PI is reported as 0.21.

Regarding Ac-TAWDLGKGDFRI [Seq29], the IC50 in data set [1] (setting [6]), in data set [1] (SARS-CoV-2 Spike:ACE2 IC50), in data set [2] (ACE2:SARS-CoV-2 Spike IC50) and in data set [2] (setting [7]) was over 10 µM in each case.

Consider “Ac-V*EGENCYF*Ava-LWRALWRLWRSLWRLLWK-NH2 [Seq18]”, for which the IC50 in data set [1] (setting [4]) and in data set [2] (setting [5]) was over 10 µM throughout.

Consider GFQPTNGVK [Seq10], for which the IC50 in data set [1] (SARS-CoV-2 Spike:ACE2 IC50) and in data set [2] (ACE2:SARS-CoV-2 Spike IC50) was over 10 µM in each case.

Take GNYNYLYRL [Seq3]: the IC50 in data set [1] (SARS-CoV-2 Spike:ACE2 IC50) and in data set [2] (ACE2:SARS-CoV-2 Spike IC50) was over 10 µM in each case.

KVGGNYNYL [Seq2]: the IC50 in data set [1] (SARS-CoV-2 Spike:ACE2 IC50) and in data set [2] (ACE2:SARS-CoV-2 Spike IC50) was over 10 µM each time.

With STEYQAGST [Seq5], the IC50 in data set [1] (SARS-CoV-2 Spike:ACE2 IC50) and in data set [2] (ACE2:SARS-CoV-2 Spike IC50) was over 10 µM each time.

Regarding SYGFQPTNGV [Seq9], the IC50 in data set [1] (SARS-CoV-2 Spike:ACE2 IC50) and in data set [2] (ACE2:SARS-CoV-2 Spike IC50) was over 10 µM each time.

TNGVGYQPY [Seq11]: the IC50 in data set [1] (SARS-CoV-2 Spike:ACE2 IC50) and in data set [2] (ACE2:SARS-CoV-2 Spike IC50) was over 1 µM in each case.

In the case of VEGFNCYFP [Seq7], the IC50 in data set [1] (SARS-CoV-2 Spike:ACE2 IC50) and in data set [2] (ACE2:SARS-CoV-2 Spike IC50) was over 10 µM each time.
